In brackets after ≈: the same amount, converted by molar mass. Several values for one entry are separate records, joined by “and”; a condition that tells them apart may be missing. Equal values may be shown once. Read-outs that look alike come from different tables or passages of the source.
How the values were obtained:
[1] = test system: B. subtilis / cytotoxicity EC50; experiment: Selectivity index (SI) using B. subtilis MICs
Method: Additionally, the antimicrobial compounds were analyzed for cytotoxicity. […] We utilized the standard MTT assay (Promega CellTiter 96) and GraphPad Prism 7 software to determine EC50 values for each analogue. Briefly, 20,000 HepG2 cells in 200 μl of the ATCC recommended media were seeded in each well of a 96-well plate with a moisture barrier created in the outermost wells. The cells were allowed to attach overnight at 37° C., and then observed under phase contrast microscopy for proper morphological characteristics. If cells appeared healthy and attached, test compounds were added in 7 concentrations from […] (n=3) from freshly prepared DMSO stock plates. […] Once incubations were complete, the spectrophotometric absorbance of the samples was measured at a wavelength of 595 nm. […] For the HepaRG assay, NoSpin HepaRG™ cells (Lonza, cat #NSHPRG) were thawed and plated with 20,000 cells per well. They were allowed to attach for 4 h (optimal DME profile per Lonza's testing) before dosing following the identical protocol as above.

Neisseria gonorrhoeae = experiment: microbe, parasite or virus in culture; format: cell-based
[2] = Toxicity study in mice, body weight over 7 days; format: in vivo, Balb/c mice; conditions: for toxicity in mice (body weight over 7 days): 6-week-old Balb/c mice, vehicle 40% PEG300 in 0.9% NaCl
Excerpt: The vehicle is 40% PEG300 solution in 0.9% NaCl. […] Thus, the compounds are useful for in vivo antimicrobial administration.

[3] = ATCC49226, read-out: Neisseria gonorrhoeae ATCC 49226 MIC, strain ATCC 49226
[4] = read-out: Neisseria gonorrhoeae WHO 901 MIC, strain WHO 901
[5] = read-out: Neisseria gonorrhoeae WHO 914 MIC, strain WHO 914
[6] = IP 0.1 mg/kg, Day 0, individual animals, 0.1 mg/kg
[7] = IP 0.1 mg/kg, Day 1, individual animals, 0.1 mg/kg
[8] = IP 0.1 mg/kg, Day 2, individual animals, 0.1 mg/kg
[9] = IP 0.1 mg/kg, Day 3, individual animals, 0.1 mg/kg
[10] = IP 0.1 mg/kg, Day 4, individual animals, 0.1 mg/kg
[11] = IP 0.1 mg/kg, Day 5, individual animals, 0.1 mg/kg
[12] = IP 0.1 mg/kg, Day 6, individual animals, 0.1 mg/kg
[13] = IP 0.1 mg/kg, Day 7, individual animals, 0.1 mg/kg
[14] = IP 1 mg/kg, Day 0, individual animals, 1 mg/kg
[15] = IP 1 mg/kg, Day 1, individual animals, 1 mg/kg
[16] = IP 1 mg/kg, Day 2, individual animals, 1 mg/kg
[17] = IP 1 mg/kg, Day 3, individual animals, 1 mg/kg
[18] = IP 1 mg/kg, Day 4, individual animals, 1 mg/kg
[19] = IP 1 mg/kg, Day 5, individual animals, 1 mg/kg
[20] = IP 1 mg/kg, Day 6, individual animals, 1 mg/kg
[21] = IP 1 mg/kg, Day 7, individual animals, 1 mg/kg
[22] = IP 10 mg/kg, Day 0, individual animals, 10 mg/kg
[23] = IP 10 mg/kg, Day 1, individual animals, 10 mg/kg
[24] = IP 10 mg/kg, Day 2, individual animals, 10 mg/kg
[25] = IP 10 mg/kg, Day 3, individual animals, 10 mg/kg
[26] = IP 10 mg/kg, Day 4, individual animals, 10 mg/kg
[27] = IP 10 mg/kg, Day 5, individual animals, 10 mg/kg
[28] = IP 10 mg/kg, Day 6, individual animals, 10 mg/kg
[29] = IP 10 mg/kg, Day 7, individual animals, 10 mg/kg

Oc1ccccc1Sc1c[nH]c2ccc(C(F)(F)F)cc12 [Compound 177A, 2-((5-(trifluoromethyl)-1H-indol-3-yl)thio)phenol]
SI (selectivity index) [1]: 61.8

Brc1ccc(Oc2c[nH]c3ccc(Br)cc23)cc1 [5-bromo-3-(4-bromophenoxy)-1H-indole]
MIC (Neisseria gonorrhoeae; [3]): 4 µg/mL (≈ 10.9 µM)
MIC (Neisseria gonorrhoeae; [4]): 2 µg/mL (≈ 5.45 µM)
MIC (Neisseria gonorrhoeae; [5]): 4 µg/mL (≈ 10.9 µM)

c1ccc(Oc2c[nH]c3ccccc23)cc1 [3-phenoxy-1H-indole]
MIC (Neisseria gonorrhoeae; [3]): > 8 µg/mL
MIC (Neisseria gonorrhoeae; [4]): > 8 µg/mL
MIC (Neisseria gonorrhoeae; [5]): > 8 µg/mL

Oc1ccccc1Sc1c[nH]c2ccc(Br)cc12 [Compound 174AI, 2-((5-bromo-1H-indol-3-yl)thio)phenol]
toxicity in mice (body weight over 7 days) [2]: did not have significant toxicity
Animal body weight [2, 6]: 0.023 kg (2×) and 0.022 kg
Animal body weight [2, 7]: 0.022 kg (2×) and 0.021 kg
Animal body weight [2, 8]: 0.023 kg and 0.022 kg and 0.021 kg
Animal body weight [2, 9]: 0.024 kg and 0.022 kg (2×)
Animal body weight [2, 10]: 0.024 kg and 0.022 kg (2×)
Animal body weight [2, 11]: 0.024 kg and 0.022 kg (2×)
Animal body weight [2, 12]: 0.024 kg and 0.022 kg (2×)
Animal body weight [2, 13]: 0.023 kg (2×) and 0.022 kg
Animal body weight [2, 14]: 0.022 kg and 0.024 kg and 0.026 kg
Animal body weight [2, 15]: 0.023 kg and 0.024 kg and 0.026 kg
Animal body weight [2, 16]: 0.023 kg and 0.025 kg and 0.026 kg
Animal body weight [2, 17]: 0.023 kg and 0.025 kg and 0.027 kg
Animal body weight [2, 18]: 0.022 kg and 0.025 kg and 0.026 kg
Animal body weight [2, 19]: 0.022 kg and 0.025 kg and 0.026 kg
Animal body weight [2, 20]: 0.022 kg and 0.024 kg and 0.026 kg
Animal body weight [2, 21]: 0.022 kg and 0.024 kg and 0.026 kg
Animal body weight [2, 22]: 0.022 kg and 0.026 kg and 0.024 kg
Animal body weight [2, 23]: 0.021 kg and 0.024 kg and 0.022 kg
Animal body weight [2, 24]: 0.022 kg and 0.024 kg and 0.023 kg
Animal body weight [2, 25]: 0.022 kg and 0.025 kg and 0.023 kg
Animal body weight [2, 26]: 0.022 kg and 0.026 kg and 0.024 kg
Animal body weight [2, 27]: 0.023 kg and 0.026 kg and 0.024 kg
Animal body weight [2, 28]: 0.022 kg and 0.026 kg and 0.024 kg
Animal body weight [2, 29]: 0.022 kg and 0.026 kg and 0.023 kg

CCc1ccccc1Sc1c(CO)[nH]c2ccc(C(F)(F)F)cc12 [Compound 177I, (3-((2-ethylphenyl)thio)-5-(trifluoromethyl)-1H-indol-2-yl)methanol]
SI (selectivity index) [1]: 10.0

Fc1ccc2[nH]cc(Cc3ccc(Br)cc3)c2c1 [3-(4 bromobenzyl)-5-fluoro-1H-indole]
MIC (Neisseria gonorrhoeae; [3]): 4 µg/mL (≈ 13.2 µM)

Fc1ccc2[nH]cc(Sc3ccc(Br)cc3)c2c1 [Compound 174E, 3-((4-bromophenyl)thio)-5-fluoro-1H-indole]
SI (selectivity index) [1]: 14.2

OCc1[nH]c2ccc(Br)cc2c1Sc1ccccc1Br [Compound 177H, (5-bromo-3-((2-bromophenyl)thio)-1H-indol-2-yl)methanol]
SI (selectivity index) [1]: 20.4

Oc1ccc(Sc2c[nH]c3ccc(C(F)(F)F)cc23)cc1 [Compound 177B, 4-((5-(trifluoromethyl)-1H-indol-3-yl)thio)phenol]
SI (selectivity index) [1]: 17.8

Fc1ccccc1Sc1c[nH]c2ccc(Br)cc12 [Compound 174AU, 5-bromo-3-((2-fluorophenyl)thio)-1H-indole]
toxicity in mice (body weight over 7 days) [2]: did not have significant toxicity
Animal body weight [2, 6]: 0.026 kg and 0.023 kg and 0.024 kg
Animal body weight [2, 7]: 0.024 kg and 0.022 kg and 0.023 kg
Animal body weight [2, 8]: 0.025 kg and 0.022 kg and 0.023 kg
Animal body weight [2, 9]: 0.025 kg and 0.022 kg and 0.023 kg
Animal body weight [2, 10]: 0.025 kg and 0.022 kg and 0.023 kg
Animal body weight [2, 11]: 0.025 kg and 0.023 kg and 0.024 kg
Animal body weight [2, 12]: 0.025 kg and 0.022 kg and 0.023 kg
Animal body weight [2, 13]: 0.024 kg and 0.022 kg and 0.023 kg
Animal body weight [2, 14]: 0.026 kg and 0.022 kg and 0.025 kg
Animal body weight [2, 15]: 0.025 kg (2×) and 0.022 kg
Animal body weight [2, 16]: 0.026 kg and 0.022 kg and 0.025 kg
Animal body weight [2, 17]: 0.026 kg and 0.022 kg and 0.025 kg
Animal body weight [2, 18]: 0.026 kg and 0.023 kg and 0.025 kg
Animal body weight [2, 19]: 0.026 kg and 0.023 kg and 0.025 kg
Animal body weight [2, 20]: 0.025 kg (2×) and 0.023 kg
Animal body weight [2, 21]: 0.026 kg and 0.024 kg and 0.025 kg
Animal body weight [2, 22]: 0.024 kg (2×) and 0.025 kg
Animal body weight [2, 23]: 0.023 kg (2×) and 0.024 kg
Animal body weight [2, 24]: 0.023 kg (2×) and 0.025 kg
Animal body weight [2, 25]: 0.024 kg and 0.023 kg and 0.025 kg
Animal body weight [2, 26]: 0.023 kg (2×) and 0.025 kg
Animal body weight [2, 27]: 0.023 kg (2×) and 0.026 kg
Animal body weight [2, 28]: 0.022 kg and 0.023 kg and 0.026 kg
Animal body weight [2, 29]: 0.022 kg and 0.023 kg and 0.026 kg

Clc1ccc(Sc2c[nH]c3ccc(Br)cc23)cc1 [Compound 174J, 5-bromo-3-((4-chlorophenyl)thio)-1H-indole]
SI (selectivity index) [1]: 16.2

Brc1ccc(Oc2c[nH]c3ccccc23)cc1 [3-(4-bromophenoxy)-1H-indole]
MIC (Neisseria gonorrhoeae; [3]): > 8 µg/mL
MIC (Neisseria gonorrhoeae; [4]): 4 µg/mL (≈ 13.9 µM)
MIC (Neisseria gonorrhoeae; [5]): > 8 µg/mL

CC(c1ccccc1)c1c[nH]c2ccc(F)cc12 (centres unmarked)
MIC (Neisseria gonorrhoeae; [3]): 8 µg/mL (≈ 33.4 µM)
MIC (Neisseria gonorrhoeae; [4]): 4 µg/mL (≈ 16.7 µM)
MIC (Neisseria gonorrhoeae; [5]): 8 µg/mL (≈ 33.4 µM)

Cc1[nH]c2ccc(Br)cc2c1Sc1ccccc1Br [Compound 174AZ, 5-bromo-3-((2-bromophenyl)thio)-2-methyl-1H-indole]
toxicity in mice (body weight over 7 days) [2]: did not have significant toxicity
Animal body weight [2, 6]: 0.023 kg (2×) and 0.025 kg
Animal body weight [2, 7]: 0.022 kg and 0.024 kg and 0.023 kg
Animal body weight [2, 8]: 0.022 kg and 0.025 kg and 0.023 kg
Animal body weight [2, 9]: 0.022 kg and 0.025 kg and 0.023 kg
Animal body weight [2, 10]: 0.023 kg (2×) and 0.025 kg
Animal body weight [2, 11]: 0.022 kg and 0.025 kg and 0.023 kg
Animal body weight [2, 12]: 0.022 kg and 0.025 kg and 0.023 kg
Animal body weight [2, 13]: 0.022 kg (2×) and 0.025 kg
Animal body weight [2, 14]: 0.024 kg (2×) and 0.025 kg
Animal body weight [2, 15]: 0.023 kg and 0.024 kg (2×)
Animal body weight ([2]; IP 1 mg/kg, Day 2, individual animals): 0.024 kg
Animal body weight [2, 17]: 0.025 kg and 0.024 kg (2×)
Animal body weight [2, 18]: 0.025 kg (2×) and 0.024 kg
Animal body weight [2, 19]: 0.025 kg and 0.023 kg and 0.024 kg
Animal body weight [2, 20]: 0.025 kg and 0.024 kg (2×)
Animal body weight [2, 21]: 0.025 kg and 0.023 kg and 0.024 kg
Animal body weight [2, 22]: 0.023 kg (2×) and 0.024 kg
Animal body weight [2, 23]: 0.022 kg (2×) and 0.023 kg
Animal body weight [2, 24]: 0.022 kg and 0.023 kg (2×)
Animal body weight [2, 25]: 0.022 kg (2×) and 0.023 kg
Animal body weight ([2]; IP 10 mg/kg, Day 4, individual animals): 0.023 kg
Animal body weight ([2]; IP 10 mg/kg, Day 5, individual animals): 0.023 kg
Animal body weight [2, 28]: 0.022 kg (2×) and 0.023 kg
Animal body weight [2, 29]: 0.023 kg (2×) and 0.022 kg

Fc1ccc(Sc2c[nH]c3ccc(Br)cc23)cc1 [Compound 174P, 5-bromo-3-((4-fluorophenyl)thio)-1H-indole]
SI (selectivity index) [1]: 24.6

CCc1ccccc1Sc1c[nH]c2ccc(C(F)(F)F)cc12 [Compound 177G, 3-((2-ethylphenyl)thio)-5-(trifluoromethyl)-1H-indole]
SI (selectivity index) [1]: 18.9

Brc1ccc2[nH]cc(Oc3ccccc3)c2c1 [5 bromo-3-phenoxy-1H-indole]
MIC (Neisseria gonorrhoeae; [3]): 8 µg/mL (≈ 27.8 µM)
MIC (Neisseria gonorrhoeae; [4]): 4 µg/mL (≈ 13.9 µM)
MIC (Neisseria gonorrhoeae; [5]): 8 µg/mL (≈ 27.8 µM)

Cc1ccccc1Oc1c[nH]c2ccc(F)cc12
MIC (Neisseria gonorrhoeae; [3]): 8 µg/mL (≈ 33.2 µM)
MIC (Neisseria gonorrhoeae; [4]): 4 µg/mL (≈ 16.6 µM)
MIC (Neisseria gonorrhoeae; [5]): 8 µg/mL (≈ 33.2 µM)

FC(F)(F)c1ccc2[nH]cc(Sc3ccccc3C(F)(F)F)c2c1 [Compound 177F, 5-(trifluoromethyl)-3-((2-(trifluoromethyl)phenyl)thio)-1H-indole]
SI (selectivity index) [1]: 19.1

Fc1ccccc1Sc1c[nH]c2ccc(C(F)(F)F)cc12 [Compound 177D, 3-((2-fluorophenyl)thio)-5-(trifluoromethyl)-1H-indole]
SI (selectivity index) [1]: 17.4

Cc1cccc(Cc2c[nH]c3ccc(F)cc23)c1
MIC (Neisseria gonorrhoeae; [3]): 8 µg/mL (≈ 33.4 µM)
MIC (Neisseria gonorrhoeae; [4]): 8 µg/mL (≈ 33.4 µM)
MIC (Neisseria gonorrhoeae; [5]): > 8 µg/mL

Fc1ccc2[nH]cc(Cc3ccccc3F)c2c1
MIC (Neisseria gonorrhoeae; [3]): 8 µg/mL (≈ 32.9 µM)
MIC (Neisseria gonorrhoeae; [4]): 8 µg/mL (≈ 32.9 µM)
MIC (Neisseria gonorrhoeae; [5]): > 8 µg/mL

Reference: patent US20250382269A1 (CFD Research Corporation, priority 2019, published 2025)
